# According to article PMC12051620, “Molecular basis underlying the specificity of an antagonist AA92593 for mammalian melanopsins” (The Journal of Biological Chemistry, 2025):
# Assays:
# mouse melanopsin WT = target: T1, mouse melanopsin WT (Mus musculus, UniProt Q9QXZ9); assay: GsX GloSensor assay with Gsα/q11; format: cell-based; conditions: COS-1 cells
# T1 construct: expressed in transfected cells; host or cells: COS-1
# T1 sequence (Q9QXZ9 1-381 limits assumed): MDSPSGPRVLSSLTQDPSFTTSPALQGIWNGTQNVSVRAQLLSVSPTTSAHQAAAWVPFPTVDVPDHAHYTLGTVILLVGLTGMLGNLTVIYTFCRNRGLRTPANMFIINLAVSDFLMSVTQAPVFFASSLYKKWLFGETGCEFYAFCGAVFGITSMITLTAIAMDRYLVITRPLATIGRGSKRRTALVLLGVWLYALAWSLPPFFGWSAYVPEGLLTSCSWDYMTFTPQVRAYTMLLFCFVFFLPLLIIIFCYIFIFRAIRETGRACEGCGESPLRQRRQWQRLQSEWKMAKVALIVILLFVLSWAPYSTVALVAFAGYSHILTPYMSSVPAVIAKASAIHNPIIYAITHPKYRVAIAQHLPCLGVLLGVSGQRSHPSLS
# Excerpt: To quantify the antagonistic effects of AA92593 on mammalian melanopsins, we used the GsX GloSensor assay ([12], [13], [14]). This assay measures GPCR-induced increases in intracellular cAMP levels even for Gq-, Gi/o-, or G12-coupled receptors by using Gsα chimeras ([12], [13], [14]). Because melanopsin is primarily coupled with Gq-type G proteins, a Gsα mutant with 11 C-terminal sequence of Gqα (Gsα/q11) was expressed in COS-1 cells with melanopsin and a luciferase-based cAMP biosensor (see “Experimental procedures”) ([15]). This assay enables the measurement of Gq activation by melanopsin as cAMP production (an increase in luminescence). In this study, we used C-terminal–truncated melanopsin constructs to increase the expression levels with minimal compromise in functionality ([9], [16], [17], [18], [19]). […] In addition, the C-terminal region is located far from the binding site of AA92593 (see below). Hereafter, the C-terminal–truncated melanopsin constructs are named as “WT.”
# In the constructs for melanopsin expression (opsin name - GenBank ID: human melanopsin - NM_033282.4, mouse melanopsin - NM_013887.2, Xenopus Opn4x - NM_001085674.1, chicken opn4-1 - NM_001397961.1, B. belcheri melanopsin - AB205400.1, and B. lanceolatum melanopsin - MF464477.1), the C-terminal amino acid residues (94, 140, 200, 214, 296, and 308 residues for human ([9]), mouse ([9]), Xenopus, chicken, belcheri ([16]), and lanceolatum melanopsins, respectively) were removed, the 1D4 tag sequence (ETSQVAPA) was added, and inserted into the EcoRI/NotI site in a mammalian expression vector pMT. Jumping spider rhodopsin-1 (GenBank ID: AB251846.1) was also added with the 1D4 tag and inserted into pMT vector. Human and mouse melanopsins, and jumping spider rhodopsin-1 in pCDNA3.1 were kindly provided from Drs. Akihisa Terakita and Mitsumasa Koyanagi (Osaka Metropolitan University). In this paper, each opsin with the C-terminal sequence modifications as described above is denoted “WT.” Bovine Gsα and its mutants Gsα/q11 and Gsα/i11 (C-terminal 11 residues are replaced with Gqα and Giα, respectively) were also inserted into the pMT vector. The GFP-tagged melanopsin constructs, in which EGFP protein fused with C-termini of melanopsins, were prepared as previously described ([9], [50]). […]
# (§1) For GloSensor assay, opsins, GloSensor assay sensor (coded by pGlo-22F), and NanoBiT-tagged G proteins were transiently expressed in COS-1 cells (kindly provided from Dr David Farrens, Oregon Health and Science University) using PEI as described previously ([24], [52]). […] For GFP-fluorescence microscopy, a 35-mm cell culture dish (IWAKI) was transfected with 2 μg melanopsin-GFP plasmid and 8 μg PEI in 400 μl Opti-mem and 1.2 ml D-MEM. […]
# belcheri melanopsin WT = target: T2, belcheri melanopsin WT (Branchiostoma belcheri, UniProt Q4R1I4); assay: GsX GloSensor assay with Gsα/q11; format: cell-based; conditions: 16.7 μM AA92593, COS-1 cells
# T2 construct: expressed in transfected cells; host or cells: COS-1
# Excerpt: Non-mammalian-type melanopsins were successfully converted into AA92593-susceptible types by introducing Phe-94^2.61/Ser-188^ECL2/Ser-269^6.52 or Phe-207^5.42 (Fig. 6). We attempted to extend the functional conversion targets to invertebrate melanopsin (see Fig. S2). […] We assessed the susceptibility of belcheri and lanceolatum melanopsins to AA92593 using the GsX GloSensor assay with Gsα/q11. In the absence of AA92593, the belcheri melanopsin produced smaller light-dependent cAMP responses than the other melanopsins assessed in this study (Fig. 7A), whereas the lanceolatum melanopsin produced robust cAMP responses upon light illumination (Fig. 7B). […] On the other hand, responses by the lanceolatum melanopsin were insensitive to the antagonist (Fig. 7B), similar to non-mammalian-type melanopsins (Fig. 6, A and D). […]
# as §1
# [1] = relative peak cAMP response vs no AA92593
# T2 sequence (Q4R1I4 1-410 limits assumed): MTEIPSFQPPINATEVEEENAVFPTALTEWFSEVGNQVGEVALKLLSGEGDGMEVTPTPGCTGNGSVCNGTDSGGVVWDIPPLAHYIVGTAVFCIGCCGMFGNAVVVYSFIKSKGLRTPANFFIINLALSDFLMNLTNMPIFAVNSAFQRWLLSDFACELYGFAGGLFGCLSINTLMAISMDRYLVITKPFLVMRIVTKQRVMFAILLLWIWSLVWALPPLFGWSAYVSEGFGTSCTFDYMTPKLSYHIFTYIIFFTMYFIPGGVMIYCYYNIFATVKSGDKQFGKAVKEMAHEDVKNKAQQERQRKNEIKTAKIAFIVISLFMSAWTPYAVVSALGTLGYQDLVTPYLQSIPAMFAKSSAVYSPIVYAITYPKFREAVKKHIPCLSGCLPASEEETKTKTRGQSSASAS
compound,measurement,setting,value
COc1ccc(S(=O)(=O)N2CCCCC2)cc1C [AA92593],Hill fitting parameter rate of dose-response curve,mouse melanopsin WT,−1.15 ± 0.18
same,IC50,"mouse melanopsin WT; 0.1 μM 9-cis-retinal, white light 10 s, n = 3, read-out: IC50, reduction in peak cAMP responses upon Gsα/q11 activation",2.98 ± 0.58 µM
same,Hill fitting parameter max of dose-response curve,mouse melanopsin WT; [1],98.86 ± 1.11
same,Hill fitting parameter min of dose-response curve,mouse melanopsin WT; [1],46.53 ± 4.15
same,reduction of light-induced cellular responses by the addition of AA92593,belcheri melanopsin WT,~34%
